Where “and” joins values, the source holds several entries; their conditions need not be identical. Equal entries are not always repeated.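 These data come from cells grown in 96-well plates and exposed to compound for 48 hours at five concentrations. Here, GI50 denotes the concentration required for 50% inhibition of growth. Definition used: TGI = concentration required for complete inhibition of growth.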
Key:
Assay in all cases: NCI anticancer screen, dose series, 48 h
COLO 205 colon = system: COLO 205 colon
HT29 colon = system: HT29 colon
UO-31 renal = system: UO-31 renal
IGROV1 ovarian = system: IGROV1 ovarian
PC-3 prostate = system: PC-3 prostate
NCI/ADR-RES ovarian = system: NCI/ADR-RES ovarian
SK-MEL-2 melanoma = system: SK-MEL-2 melanoma
ACHN renal = system: ACHN renal
SN12C renal = system: SN12C renal
SW-620 colon = system: SW-620 colon

SMILES | GI50 (COLO 205 colon) | TGI (COLO 205 colon) | GI50 (HT29 colon) | TGI (HT29 colon) | GI50 (UO-31 renal) | TGI (UO-31 renal) | GI50 (IGROV1 ovarian) | TGI (IGROV1 ovarian) | GI50 (PC-3 prostate) | TGI (PC-3 prostate) | GI50 (NCI/ADR-RES ovarian) | TGI (NCI/ADR-RES ovarian) | GI50 (SK-MEL-2 melanoma) | TGI (SK-MEL-2 melanoma) | GI50 (ACHN renal) | TGI (ACHN renal) | GI50 (SN12C renal) | TGI (SN12C renal) | GI50 (SW-620 colon) | TGI (SW-620 colon)
C[C@]12CC[C@@H]3c4ccc(O)cc4C(O)C[C@H]3[C@@H]1CCC2=O (stereo partly drawn) | > 100 µM | > 100 µM | 46.7 µM | > 100 µM | 53.8 µM | > 100 µM | 58 µM | > 100 µM | > 100 µM | > 100 µM | > 100 µM | > 100 µM | > 100 µM | > 100 µM | > 100 µM | > 100 µM | > 100 µM | > 100 µM | > 100 µM | > 100 µM
CSc1ccc(/C=C2\C=C(CC(=O)NCc3ccc(C(=O)c4ccccc4)cc3)c3cc(F)ccc32)cc1 | 0.19 µM | 0.431 µM | 0.0368 µM | 2.73 µM | 0.36 µM | 13 µM | 0.0848 µM | 17.7 µM | 0.0473 µM | 13.1 µM | 0.0328 µM | 0.187 µM | 0.049 µM | 7.04 µM | 0.261 µM | 12.3 µM | 0.059 µM | 23 µM | 0.0431 µM | > 100 µM
CCOc1c(Cl)cc(CNC(C)C(O)c2ccccc2)cc1OC (stereo not drawn) | 19 µM | 35.9 µM | 18.6 µM | 45.5 µM | 18 µM | 89.6 µM | 70.6 µM | > 100 µM | 30.7 µM | > 100 µM | 20.2 µM | 59.1 µM | 21.4 µM | 39 µM | 23.7 µM | > 100 µM | 38.7 µM | > 100 µM | 22.8 µM | 58.1 µM
CC(=O)OCC=C(CCl)CCC(Br)C(C)(C)Br (mixture of isomers) | – | > 10 µM | – | > 10 µM | – | > 10 µM | – | > 10 µM | – | > 10 µM | – | > 10 µM | – | > 10 µM | – | > 10 µM | – | > 10 µM | – | > 10 µM
O=C1CCCN1CC#CCN1CCCC1 | > 100 µM | > 100 µM | > 100 µM | > 100 µM | > 100 µM | > 100 µM | > 100 µM | > 100 µM | > 100 µM | > 100 µM | > 100 µM | > 100 µM | > 100 µM | > 100 µM | > 100 µM | > 100 µM | > 100 µM | > 100 µM | > 100 µM | > 100 µM
c1nnc(NCNc2nncs2)s1 | – | > 100 µM | – | > 100 µM | – | > 100 µM | – | > 100 µM | – | > 100 µM | – | > 100 µM | – | > 100 µM | – | > 100 µM | – | > 100 µM | – | > 100 µM
Cc1ccc(N=Nc2c(C)c(C#N)c(=S)n(C3OC(CO)C(O)C(O)C3O)c2-c2ccccc2)cc1 (stereo not drawn) | – | 57.4 µM | – | 89.2 µM | – | 86.9 µM | – | > 100 µM | – | 55.6 µM | – | > 100 µM | – | 45.6 µM | – | > 100 µM | – | > 100 µM | – | 36.3 µM
OCC1OC(n2cnc3c(/C=C(/O)c4ccccc4)ncnc32)C(O)C1O (stereo not drawn) | – | 2.7 µM | – | > 100 µM | – | > 35.7 µM | – | > 100 µM | – | > 62.4 µM | – | > 92 µM | – | > 24.7 µM | – | > 100 µM | – | > 100 µM | – | > 100 µM
Oc1ccccc1-c1nc2c3ccccc3c3ccccc3c2[nH]1 | 10.8 µM | 22.7 µM | 14 µM | 27 µM | 2.28 µM | 14.6 µM | 0.0614 µM | 14.4 µM | 3.49 µM | 14.8 µM | 8.43 µM | 25.6 µM | 5.16 µM | 16.7 µM | 4.26 µM | 15.6 µM | 10.7 µM | 22.6 µM | 10.6 µM | 22.4 µM
COc1ccc(Cn2c(Cl)c(/C=C3/C(=O)Nc4ccccc43)c3cc(OC)c(C)cc32)cc1 | 2.33 µM | 5.52 µM | 4.1 µM | > 100 µM | 5.82 µM | > 100 µM | 13.3 µM | > 100 µM | 6.22 µM | > 100 µM | 2 µM | 4.77 µM | 19.8 µM | > 100 µM | 8.11 µM | > 100 µM | 8.17 µM | > 100 µM | 3.46 µM | > 100 µM
O=C1Nc2cccc3cc(NCC(O)CCl)cc1c23 (stereo not drawn) | – | > 100 µM | – | > 100 µM | – | 92.1 µM | – | > 100 µM | – | > 100 µM | – | > 100 µM | – | 69.9 µM | – | > 100 µM | – | > 100 µM | – | > 100 µM
CN[C@@H]1C[C@H]2O[C@@](C)([C@@H]1OC)n1c3ccccc3c3c4c(c5c6ccccc6n2c5c31)C(=O)N[C@@H]4O | – | 0.691 µM | 0.0475 µM | – | – | 0.0645 µM | 0.0129 µM and 0.0461 µM | 0.0617 µM and 0.341 µM | – | 0.258 µM and 0.13 µM | 0.105 µM | 0.3 µM and 0.42 µM | 0.0348 µM | 0.245 µM and 0.123 µM | 0.00526 µM and < 0.0151 µM | – | – | 6.77 µM | 0.147 µM | 0.3 µM and 1.88 µM
CC(C)[C@H]1C(=O)N[C@@H](CCCN=C(N)N)C(=O)NCC(=O)N[C@@H](CC(=O)O)C(=O)N[C@H](Cc2ccccc2)C(=O)N1C | > 100 µM | > 100 µM | > 61.1 µM | > 100 µM | > 73.2 µM | > 100 µM | > 62.2 µM | > 100 µM | > 100 µM | > 100 µM | > 100 µM | > 100 µM | 1.35 µM | 5.78 µM | > 100 µM | > 100 µM | 2.33 µM | > 25.3 µM | – | > 100 µM
Nc1ccc(S(=O)(=O)NCc2nccs2)cc1 | – | 32.7 µM | – | 31.3 µM | – | 55.1 µM | – | 56.8 µM | – | > 100 µM | – | 62.7 µM | – | 37.9 µM | – | 63.4 µM | – | 37.8 µM | – | > 100 µM
Cc1ccc(SC(=O)N2C(=S)NC(=NC3CCCCC3)C23CCCCC3)cc1 | – | > 100 µM | – | > 100 µM | – | > 100 µM | – | > 100 µM | – | > 100 µM | – | > 100 µM | – | > 100 µM | – | > 100 µM | – | > 100 µM | – | > 100 µM
CCN(CC)CCCC(C)Nc1c2ccc(C)cc2nc2ccc(OC)cc12 (stereo not drawn) | 1.21 µM | 2.96 µM | 0.37 µM | 3.32 µM | 1.05 µM | 2.36 µM | 0.514 µM | 3.12 µM | 1.94 µM | 10.8 µM | 4.03 µM | 22.7 µM | 1.89 µM | 8.75 µM | 0.741 µM | 11.7 µM | 3.12 µM | 55.1 µM | 0.709 µM | 10.2 µM

— PubChem BioAssay (NCI)
